Assay results reported in patent US20100016285A1, “HETEROCYCLIDENE-N-(ARYL) ACETAMIDE DERIVATIVE” (MOCHIDA PHARMACEUTICAL CO., LTD., priority 2007, published 2010).
Like-named read-outs stand apart in the source and are kept apart here.

Assays:
[1] = cited from earlier work
[2] = Effects on rectal temperature (8-1), oral administration to rats; assay type: in vivo, rat; settings: oral single doses of 3, 10 and 30 mg/kg; 30, 60 and 120 minutes; maximum absolute difference vs vehicle
Procedure: (8-1) Effects on Rectal Temperature
A test compound was orally administered to rats at single doses of 3, 10 and 30 mg/kg. Then rectal temperature was measured 30, 60 and 120 minutes after administration.
(§1) Differences of the mean value between a group treated with test substance and a vehicle-treated group were calculated at all measuring points and, based on the maximum absolute value of differences, changes in rectal temperature were divided into the following three categories:
(§2) −: the maximum value was less than 0.5 degree Celsius +: the maximum value was more than 0.5 degree but less than 1.0 degree Celsius ++: the maximum value was more than 1.0 degree Celsius

[3] = Effects on rectal temperature (8-2), oral administration to rats; assay type: in vivo, rat; settings: single dose of 10 mg/kg, 30, 60 and 120 minutes, maximum absolute difference vs vehicle
Procedure: (§3) (8-2) Effects on Rectal Temperature
A test compound was orally administered to rats at single dose of 10 mg/kg. Then rectal temperature was measured 30, 60 and 120 minutes after administration.
as §1, §2

[4] = Effects on rectal temperature (8-2), administration into tail veins of rats; assay type: in vivo, rat; settings: Intravenous, single dose of 1 mg/kg; 15, 30 and 60 minutes; maximum absolute difference vs vehicle
Procedure: as §3
A test compound was administered to rats into tail veins at single dose of 1 mg/kg. Then rectal temperature was measured 15, 30 and 60 minutes after administration.
as §1, §2

human TRPV1 = target: T1, human TRPV1 (Homo sapiens, UniProt Q8NER1); assay: Capsaicin (10 nmol/L)-induced Ca influx in transformed CHO cells, FDSS-6000 (b-2), IC50; assay type: cell-based
T1 construct: expressed in transfected cells; host or cells: CHO-K1 cells, pCAGGS vector, clones selected by limiting dilution
T1 sequence (Q8NER1 whole entry): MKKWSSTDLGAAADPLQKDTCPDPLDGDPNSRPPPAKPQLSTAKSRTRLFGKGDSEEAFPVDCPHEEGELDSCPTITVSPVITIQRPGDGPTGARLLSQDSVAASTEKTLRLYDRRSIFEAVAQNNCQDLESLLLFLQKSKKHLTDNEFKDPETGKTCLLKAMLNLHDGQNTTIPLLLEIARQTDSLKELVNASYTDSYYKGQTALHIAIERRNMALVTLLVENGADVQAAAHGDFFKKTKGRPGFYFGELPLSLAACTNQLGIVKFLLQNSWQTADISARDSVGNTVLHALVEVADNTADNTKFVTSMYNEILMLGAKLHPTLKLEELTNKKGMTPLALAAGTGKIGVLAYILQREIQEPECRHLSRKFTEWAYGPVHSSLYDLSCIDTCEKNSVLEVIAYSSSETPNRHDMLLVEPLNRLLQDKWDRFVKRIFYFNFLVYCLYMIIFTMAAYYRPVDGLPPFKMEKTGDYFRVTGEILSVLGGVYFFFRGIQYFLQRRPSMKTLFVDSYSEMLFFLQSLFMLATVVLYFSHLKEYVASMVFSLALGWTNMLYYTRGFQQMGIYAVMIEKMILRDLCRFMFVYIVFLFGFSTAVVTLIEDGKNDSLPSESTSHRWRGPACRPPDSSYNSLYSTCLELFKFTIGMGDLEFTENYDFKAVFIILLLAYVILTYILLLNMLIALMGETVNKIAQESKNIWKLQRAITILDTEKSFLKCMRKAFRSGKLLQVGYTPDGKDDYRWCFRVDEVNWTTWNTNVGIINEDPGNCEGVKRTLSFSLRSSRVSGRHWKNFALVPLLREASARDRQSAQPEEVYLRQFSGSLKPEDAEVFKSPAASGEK
Text: (1) Measurement of Capsaicin-Induced Ca Influx in a Transformed CHO Cell Line Expressing Human TRPV1
(a) Establishment of a Transformed CHO Cell Line Expressing Human and Rat TRPV1
Human and rat vanilloid receptor 1 (hTRPV1 and rTRPV1) cDNA was cloned from human brain and rat dorsal root ganglion, respectively. The cloned TRPV1 cDNA was incorporated in a pCAGGS vector. The vector was introduced to a CHO-K1 cell line, thus performing transformation. Clones obtained by limiting dilution were stimulated with capsaicin. Clones with a high responsiveness were selected using an increase in the Ca concentration as an indicator. The selected clones were used for the following experiment.
(b-2) Measurement of Ca Influx using FDSS-6000
The transformed CHO cells expressing human or rat TRPV1 were inoculated in a 96-well plate (with black walls and transparent bottoms, manufactured by Greiner) at a density of 40,000 cells per well. The cells were cultured at 37° C. in 5% CO2 atmosphere for one night. A loading solution of FLIPR Calcium 3 assay kit (manufactured by Molecular Devices Corporation) containing 2.5 mmol/L of probenecid was then added to each of the wells in the same amount as the culture medium, and the cells were cultured at 37° C. for 60 minutes. For three minutes after the cells were stimulated with capsaicin (10 nmol/L), the change of the intracellular Ca concentration was measured using FDSS-6000 (λex: 480 nm, λem: 540 nm, manufactured by Hamamatsu Photonics K.K.). The integrated values of the increase rate of the intracellular Ca concentration were calculated for a group treated with the compounds of the present invention and a group treated with a vehicle. Then, the concentration of the compound of the present invention was calculated that inhibits 50% of the intracellular Ca concentration increase induced by capsaicin (IC50). Using this value as the index, inhibitory effects of the test compounds were compared. In addition, when IC50 value in human TRPV1 was less than 100 nmol/L, it was shown as A in Table 1C.

| Compound | Change in rectal temperature in rats [2] | Change of rat rectal temperature [4] | also measured |
| --- | --- | --- | --- |
| CC(C)(C)c1ccc(/C=C/C(=O)Nc2ccc3c(c2)OCCO3)cc1 [Compound B, (E)-3-(4-t-butylphenyl)-N-(2,3-dihydrobenzo[b][1,4]dioxine-6-yl)acrylamide] | – | – | Change of rat rectal temperature ([1]; Intraperitoneal, reference information (Non-Patent Document 4 or 5)): Increase^1); Change in rectal temperature in rats ([1]; from published information (Non-Patent Document 4 or 5)): Increased^1) |
| CC(=O)Nc1nc2c(Oc3cc(-c4ccc(C(F)(F)F)cc4)ncn3)cccc2s1 [Compound C, N-(4-[6-(4-trifluoromethyl-phenyl)-pyrimidin-4-yloxy]-benzothiazol-2-yl)-acetamide, reference compound] | ++ (increased) (the maximum value was more than 1.0 degree Celsius) | – | Change of rat rectal temperature [3]: ++ (Increase) (the maximum value was more than 1.0 degree Celsius) |
| O=C(/C=C1\CCCOc2cc(C(F)(F)F)ccc21)Nc1cccc2c1CC(O)CN2 (centres unmarked) [Compound D, (E)-2-(8-trifluoromethyl-3,4-dihydrobenzo[b]oxepin-5(2H)-ylidene)-N-(3-hydroxy-1,2,3,4-tetrahydroquinolin-5-yl)acetamide, reference compound] | ++ (increased) (the maximum value was more than 1.0 degree Celsius) | + (Increase) (the maximum value was more than 0.5 degree but less than 1.0 degree Celsius) | – |
| CN1C(=O)NCc2c(NC(=O)/C=C3\CC(C)(C)Oc4cc(C(F)(F)F)ccc43)cccc21 [Example 305, (E)-2-(2,2-dimethyl-7-trifluoromethylchroman-4-ylidene)-N-(3,4-dihydro-1-methyl-2(1H)-quinazolinone-5-yl)acetamide] | – | − (the maximum value was less than 0.5 degree Celsius) | IC50 (human TRPV1): < 100 nM |
